Results as given in patent publication US20210129406A1, “DRUG SOLVATES IN THERMAL PROCESSES TO MAKE SOLID DISPERSIONS AT LOWER PROCESSING TEMPERATURES” (BOARD OF REGENTS, THE UNIVERSITY OF TEXAS SYSTEM, priority 2019, published 2021).

Legend:
[1] = cited from earlier work
[2] = Solid-state stability of carbamazepine dihydrate (PXRD) at room temperature, 56% relative humidity; type: physicochemical
Procedure: CBZ dihydrate was prepared by suspending CBZ anhydrate in water for 24 hours.

Structure (SMILES) | pKa [1] | stability of the dihydrate form ([2]; 56% relative humidity at room temperature throughout the whole experiments) | stability of the dihydrate form (PXRD) ([2]; 3 days at room temperature 56% relative humidity)
NC(=O)N1c2ccccc2C=Cc2ccccc21 [carbamazepine] | 13.4 |  | 
NC(=O)N1c2ccccc2C=Cc2ccccc21 [carbamazepine dihydrate] |  | stayed stable | stayed stable
